The values that follow come from patent publication US20180303141A1, “FLAVOR COMPOSITION FOR FOOD PRODUCTS” (NESTEC S.A., priority 2015, published 2018).

One assay has as its system umami taste. Kind of assay: Fractionation of aqueous pea extract and analysis of the fractions with strong umami taste. The conditions noted are these: compound identified in pea extract. Here is the method: The applicant prepared an aqueous extract of pea, preferably green pea and then subjected that extract to fractionation.
The compounds were isolated and characterized using two-dimensional preparative chromatography. For example, size exclusion chromatography in the first dimension, then hydrophilic interaction column (normal phase) in a second dimension. Identification of compounds was carried out using conventional analytical methods such as LC-MS or NMR.

For assay [1], the system named is sensory panel of 6 trained persons. The assay can be described thus: Sensory evaluation of pea extract dissolved in water, umami intensity on a 3-point scale versus a control sample. It is filed as in vivo, human. The conditions noted are these: calculated for the example with pea extract containing 0.5% beta-R in water. The method, then:
Different pea extract from Pisum sativum containing the composition as described in table 1 has been used to define the threshold concentrates in a sensory panel of 6 trained persons. The technical tasting was measured versus a control sample. Tasters were asked to judge the different products according to umami intensity on a 3-point scale.

Assay [2] has as its system panel of 12 experienced tasters. The assay can be described thus: Comparison of the umami impression of a standard bouillon containing MSG and a bouillon with pea extract but no MSG (scale 0-10). It is filed as in vivo, human. The conditions noted are these: standard bouillon containing MSG; average of 12 tasters, 0=no umami, 10=strong umami. The source says: A standard bouillon containing no MSG but added pea extract was compared to the same standard bouillon containing MSG. A trained panel rated the bouillons on a scale from 0 (no umami) to 10 (strong umami). This gives evidence that the pea extract delivers a strong umami even it is less than to MSG itself, but the taste is received as being more natural and round mouthfeel instead of using MSG alone. […] The pea extract used was obtained by a blanching water process containing the composition as described in table 1. The results given are the average rating of a panel of 12 experienced tasters rating the umami intensity (0=no umami; 10=strong umami).

Assay [3] concerns panel of six experienced tasters. Kind of assay: Evaluation of the umami impression of the pea extract in different bouillon bases (scale 0-3). The conditions noted are these: bouillon base containing sub-threshold MSG (60 mg/L), no pea extract; average of six tasters, 0=no umami, 3=strong umami. Format: in vivo, human. The source says:
It is clear from Example 3 that the umami impression cannot be explained solely by the MSG content. The MSG taste threshold is described in the literature as between 0.255 and 0.5 g MSG/L (1.5-3 mmol/L) (Behrens, M., et al. (2011) Sweet and Umami Taste: Natural Products, Their Chemosensory Targets, and Beyond; Angew. Chem. Int. Ed., 50, 2220-2242). Therefore the MSG content for the Pisum sativum extract is below the taste threshold. To confirm the umami taste of the pea extract, all MSG containing ingredients (MSG, ribonucleotides and yeast extract) were removed from a standard bouillon. Pea extract was added. […] The effect of the addition of a pea extract to a bouillon base (which has no intrinsic umami taste) is to provide a strong umami taste. It is clear that the pea extract alone promotes umami taste, and that this effect is even greater in the presence of MSG.
The pea extract used was obtained by a blanching water process containing the composition as described in table 1.
The results given are the average rating of a panel of six experienced tasters rating the umami intensity (0=no umami; 1=umami barely perceivable; 2=umami clearly perceivable; 3=strong umami).

For “(5R)-(β-D-glucopyranosyloxy)-1,5-dihydro-2H-pyrrol-2-one [beta-R]”, in the assay on umami taste, the “Contribution to umami taste (in words)” value was “responsible to provide and enhance an umami taste”. Moreover, the threshold concentrate in assay [1] is 147 ppm.
For `N[C@@H](CCC(=O)O)C(=O)[O-].[Na+]` [MSG, Monosodium glutamate], the figures for the “Umami Rating” value in assay [2] and in assay [3] were 5 and 0, respectively.
